# Laboratory results taken from patent US20060069132A1, “Azolecarboxamide herbicides” (priority 2004, published 2006).
# Tests used:
# Assay in all cases: Test E pre-/postemergence herbicide test
# Conditions in all cases: Preemergence
# common purslane = assay type: in vivo, Portulaca oleracea
# Method in brief: (§1)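 In this greenhouse assay, compounds in a solvent vehicle containing surfactant were applied pre- and postemergence, the latter to plants 2 to 18 cm high. Control was judged by eye after 12 to 14 days on a 0 to 100 scale.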
# downy bromegrass = assay type: in vivo, Bromus tectorum
# Method in brief: as §1
# large crabgrass = assay type: in vivo, Digitaria sanguinalis
# Method in brief: as §1
# dallisgrass = assay type: in vivo, Paspalum dilatatum
# Method in brief: as §1
# green foxtail = assay type: in vivo, Setaria viridis
# Method in brief: as §1
# tropical spiderwort = assay type: in vivo, Commelina benghalensis
# Method in brief: as §1
# pitted morningglory = assay type: in vivo, Ipomoea lacunosa
# Method in brief: as §1
# annual bluegrass = assay type: in vivo, Poa annua
# Method in brief: as §1
# Italian ryegrass = assay type: in vivo, Lolium multiflorum
# Method in brief: as §1
# common mallow = assay type: in vivo, Malva sylvestris
# Method in brief: as §1
# mustard = assay type: in vivo, Brassica nigra
# Method in brief: as §1
# southern sandbur = assay type: in vivo, Cenchrus echinatus
# Method in brief: as §1
# barnyardgrass = assay type: in vivo, Echinochloa crus-galli
# Method in brief: as §1
# goosegrass = assay type: in vivo, Eleusine indica
# Method in brief: as §1
# Canada horseweed = assay type: in vivo, Erigeron Canadensis
# Method in brief: as §1
# common sowthistle = assay type: in vivo, Sonchus oleraceous
# Method in brief: as §1
# [1] = 250 g ai/ha, scale 0 (no effect) to 100 (complete control)
# [2] = 500 g ai/ha, scale 0 (no effect) to 100 (complete control)
compound,measurement,setting,value
Cc1nn(C(C)(C)C)nc1C(=O)Nc1cccc(C(=O)N(C)C)c1 [Compound 391],"Plant response rating, Purslane","common purslane; 62 g ai/ha, scale 0 to 100",50
same,"Plant response rating, Purslane","common purslane; 125 g ai/ha, scale 0 to 100",95
same,"Plant response rating, Purslane",common purslane; [1],100
same,"Plant response rating, Purslane",common purslane; [2],100
same,"Plant response rating, Bromegrass, Downy","downy bromegrass; 62 g ai/ha, scale 0 to 100",10
same,"Plant response rating, Bromegrass, Downy","downy bromegrass; 125 g ai/ha, scale 0 to 100",30
same,"Plant response rating, Bromegrass, Downy",downy bromegrass; [1],95
same,"Plant response rating, Bromegrass, Downy",downy bromegrass; [2],95
same,"Plant response rating, Crabgrass, Large","large crabgrass; 62 g ai/ha, scale 0 to 100",60
same,"Plant response rating, Crabgrass, Large","large crabgrass; 125 g ai/ha, scale 0 to 100",95
same,"Plant response rating, Crabgrass, Large",large crabgrass; [1],95
same,"Plant response rating, Crabgrass, Large",large crabgrass; [2],95
same,"Plant response rating, Dallisgrass","dallisgrass; 62 g ai/ha, scale 0 to 100",60
same,"Plant response rating, Dallisgrass","dallisgrass; 125 g ai/ha, scale 0 to 100",80
same,"Plant response rating, Dallisgrass",dallisgrass; [1],95
same,"Plant response rating, Dallisgrass",dallisgrass; [2],95
same,"Plant response rating, Foxtail, Green","green foxtail; 62 g ai/ha, scale 0 to 100",60
same,"Plant response rating, Foxtail, Green","green foxtail; 125 g ai/ha, scale 0 to 100",80
same,"Plant response rating, Foxtail, Green",green foxtail; [1],95
same,"Plant response rating, Foxtail, Green",green foxtail; [2],100
same,"Plant response rating, Spiderwort","tropical spiderwort; 125 g ai/ha, scale 0 to 100",90
same,"Plant response rating, Spiderwort",tropical spiderwort; [1],90
same,"Plant response rating, Spiderwort",tropical spiderwort; [2],95
same,"Plant response rating, Morningglory","pitted morningglory; 62 g ai/ha, scale 0 to 100",10
same,"Plant response rating, Morningglory","pitted morningglory; 125 g ai/ha, scale 0 to 100",60
same,"Plant response rating, Morningglory",pitted morningglory; [1],80
same,"Plant response rating, Morningglory",pitted morningglory; [2],80
same,"Plant response rating, Bluegrass","annual bluegrass; 62 g ai/ha, scale 0 to 100",95
same,"Plant response rating, Bluegrass","annual bluegrass; 125 g ai/ha, scale 0 to 100",95
same,"Plant response rating, Bluegrass",annual bluegrass; [1],95
same,"Plant response rating, Bluegrass",annual bluegrass; [2],95
same,"Plant response rating, Ryegrass, Italian","Italian ryegrass; 125 g ai/ha, scale 0 to 100",80
same,"Plant response rating, Ryegrass, Italian",Italian ryegrass; [1],95
same,"Plant response rating, Ryegrass, Italian",Italian ryegrass; [2],95
same,"Plant response rating, Mallow","common mallow; 62 g ai/ha, scale 0 to 100",80
same,"Plant response rating, Mallow","common mallow; 125 g ai/ha, scale 0 to 100",80
same,"Plant response rating, Mallow",common mallow; [1],100
same,"Plant response rating, Mallow",common mallow; [2],100
same,"Plant response rating, Black Mustard","mustard; 62 g ai/ha, scale 0 to 100",50
same,"Plant response rating, Black Mustard","mustard; 125 g ai/ha, scale 0 to 100",80
same,"Plant response rating, Black Mustard",mustard; [1],100
same,"Plant response rating, Black Mustard",mustard; [2],100
same,"Plant response rating, Sandbur","southern sandbur; 62 g ai/ha, scale 0 to 100",10
same,"Plant response rating, Sandbur","southern sandbur; 125 g ai/ha, scale 0 to 100",70
same,"Plant response rating, Sandbur",southern sandbur; [1],80
same,"Plant response rating, Sandbur",southern sandbur; [2],80
same,"Plant response rating, Barnyardgrass","barnyardgrass; 62 g ai/ha, scale 0 to 100",50
same,"Plant response rating, Barnyardgrass","barnyardgrass; 125 g ai/ha, scale 0 to 100",100
same,"Plant response rating, Barnyardgrass",barnyardgrass; [1],100
same,"Plant response rating, Barnyardgrass",barnyardgrass; [2],100
same,"Plant response rating, Goosegrass","goosegrass; 62 g ai/ha, scale 0 to 100",30
same,"Plant response rating, Goosegrass","goosegrass; 125 g ai/ha, scale 0 to 100",80
same,"Plant response rating, Goosegrass",goosegrass; [1],90
same,"Plant response rating, Goosegrass",goosegrass; [2],95
same,"Plant response rating, Horseweed","Canada horseweed; 62 g ai/ha, scale 0 to 100",80
same,"Plant response rating, Horseweed","Canada horseweed; 125 g ai/ha, scale 0 to 100",95
same,"Plant response rating, Horseweed",Canada horseweed; [1],100
same,"Plant response rating, Horseweed",Canada horseweed; [2],100
same,"Plant response rating, Sowthistle","common sowthistle; 62 g ai/ha, scale 0 to 100",50
same,"Plant response rating, Sowthistle","common sowthistle; 125 g ai/ha, scale 0 to 100",75
same,"Plant response rating, Sowthistle",common sowthistle; [1],100
same,"Plant response rating, Sowthistle",common sowthistle; [2],100
